Series [1] is described as follows: Stability of recrystallized aspirin powder. Conditions: for % Assay / % S.A (salicylic acid impurity): 6 months 40° C./75% RH.
The nature of series [2]: Solubility testing of aspirin in commonly used co-solvents. Format: physicochemical. The note with it: 120 mg/3 mL; for Reconstitution time for milled API (Approx. 124 μm, BSS Sieve 120 passed): after shaking. How it is done:
The solubility of aspirin was determined using propylene glycol and polyethylene glycol (PEG-300 and PEG-400), which are widely used in intravenous formulations.

A short description of series [3]: Effect of bases on reconstitution time for aspirin in propylene glycol. The format is physicochemical. Conditions: aspirin 40 mg/mL, with shaking. The protocol:
Solutions of propylene glycol with different bases were prepared by sonicating mixtures of propylene glycol and bases. Aspirin was added to those solutions and shaken in a circular motion.

Series [4] in a line: Solubility and reconstitution of aspirin in semi-aqueous diluents. The format is physicochemical. The note with it: aspirin 80 mg (sieve 120 mesh passed), after shaking for 5 minutes. The protocol:
Diluent solutions were prepared by mixing solvent and water. Aspirin was added and the vials were shaken in a swirling motion.

The nature of series [5]: Effect of lactose on reconstitution time in solvent-water mixture. The format is physicochemical. The note with it: aspirin 80 mg, lactose 80 mg. The protocol:
Diluent Preparation: Water, lactose, and base were taken in a vial and sonicated until a clear solution is formed. Solvent was then added and mixed for a minute. To these diluents, aspirin was added and shaken in a swirling motion.

Series [6] in a line: Effect of lactose and mannitol combination on reconstitution time. Format: physicochemical. The note with it: aspirin 80 mg (120 sieve passed). How it is done: A mixture of lactose and mannitol were tried to improve reconstitution time. Diluents were then prepared by dissolving base and sugars in water and followed by addition of PEG 300. The diluent was transferred to a vial containing aspirin, and the vial was shaken in a swirling motion.

Series [7] is described as follows: Reconstitution time for aspirin-lactose premix. The format is physicochemical. The note with it: aspirin 80 mg + 160 mg lactose premix (both 120 sieve passed), water 1.5 ml. The text has this: […] The diluent was transferred to a vial containing aspirin triturated with lactose. The mixture was shaken in the vial in a swirling motion.
Series [8] can be described thus: Stability of reconstituted aspirin solutions by HPLC. Format: physicochemical. The protocol:
Stability was determined by HPLC analysis using the following parameters:
Mobile Phase: Solution containing 15% acetonitrile and 85% water with 2 g/L of heptanesulfonate sodium. The pH of the solution was adjusted to 3.4.
Injection volume: 10 μl, the concentration of aspirin in sample and standard injections were maintained at about 0.5 mg/mL.
The stability of Trials 3-5 was tested using the HPLC method described above.

Series [9] is described as follows: Reconstitution trials for micronized aspirin with aqueous solutions containing bases. Format: physicochemical. Conditions: aspirin 5.0 mg/mL; reconstitution with meglumine. The protocol: […] […] Shaken up and down vigorously to check reconstitution and clarity.
The reconstitution of higher doses of aspirin with aqueous solutions of bases indicate superiority using a combination of meglumine and sodium citrate over same bases used separately.
Therefore, these dilute solutions of the invention are suitable for slow infusion for a longer time. For example, the infusion can be made over 30 minutes to about 100 minutes with an infusion rate of about 3 mL/min to 0.8 mL/min. The rate of infusion of the invention can depend on the clinical conditions of patients, and can be modified as necessary. In certain cases, a bolus injection of concentrated aspirin solutions may be required. The aspirin solution (50 mg/mL) of the invention can be given as a bolus injection (e.g., 10 mL within 2-5 minutes).

For series [10] the following is noted: solubilization accompanied by aspirin degradation; cited from earlier work.
The conditions of series [11]: bicin, tricin, CAPS, TAPS, HEPES and AMPSO buffers; remained as suspended particles; cited from earlier work.
Where [12] appears, read: Lysine 40 mg, water 1.8 ml + PEG 300 1.2 ml.
Where [13] appears, read: Lysine 40 mg, water 1.8 ml + PEG 400 1.2 ml.
Setting [14] is: Tris 40 mg, water 1.8 ml + PEG 300 1.2 ml.
Where [15] appears, read: Tris 40 mg, water 1.8 ml + PEG 400 1.2 ml.
[16] abbreviates: Lysine 40 mg, lactose 80 mg + mannitol 80 mg, water 1.2 ml + PEG-300 1.8 ml.
Setting [17] is: Meglumine 40 mg, lactose 20 mg + mannitol 60 mg, distilled water 1.2 ml + PEG 300 1.8 ml.
Setting [18] is: Meglumine 40 mg, lactose 20 mg + mannitol 60 mg, distilled water 1.5 ml + PEG 300 1.5 ml.
The mark [19] stands for this setting: Meglumine 40 mg, lactose 20 mg + mannitol 60 mg, distilled water 1.8 ml + PEG 300 1.2 ml.
Where [20] appears, read: Tris 40 mg, lactose 20 mg + mannitol 60 mg, distilled water 1.2 ml + PEG 300 1.8 ml.
[21] abbreviates: Tris 40 mg, lactose 20 mg + mannitol 60 mg, distilled water 1.5 ml + PEG 300 1.5 ml.
[22] abbreviates: Tris 40 mg, lactose 20 mg + mannitol 60 mg, distilled water 1.8 ml + PEG 300 1.2 ml.
Where [23] appears, read: Tris 40 mg, lactose 80 mg + mannitol 80 mg, water 1.2 ml + PEG-300 1.8 ml.
The mark [24] stands for this setting: Tris 40 mg, lactose 80 mg + mannitol 80 mg, water 1.5 ml + PEG-300 1.5 ml.
The mark [25] stands for this setting: Tris 40 mg, lactose 80 mg + mannitol 80 mg, water 1.8 ml + PEG-300 1.2 ml.
Setting [26] is: Aspirin API, not reconstituted (reference line of stability tables).

Consider four compounds from patent US11793748B1, “Pharmaceutical compositions of aspirin for parenteral administration” (GOOD HEALTH, LLC, priority 2019, dated 2023).

In the case of `CC(=O)Oc1ccccc1C(=O)O` [Recrystallization from Ethanol], in series [1] (recrystallized powder), the “% Assay” value was 97.72% and the “% S.A (salicylic acid impurity)” value was found to be 0.452%. Besides, the “stability at accelerated conditions” value in series [1] (recrystallized powder, accelerated conditions (6 months 40° C./75% RH)) is “stable”.

Take `CC(=O)Oc1ccccc1C(=O)O` [Recrystallization from Isopropanol]: the “% Assay” value in series [1] (recrystallized powder) is given as 99.35%.

As for `CC(=O)Oc1ccccc1C(=O)O` [Recrystallization from Acetone], in [1] (recrystallized powder), the “% Assay” value is reported as 97.20% and the “% S.A (salicylic acid impurity)” value was 0.505%.

On to `CC(=O)Oc1ccccc1C(=O)O` [Aspirin, aspirin], for which the “Reconstitution time for unmilled Aspirin” value in [2] (PEG-300), in [2] (PEG-400) and in [2] (propylene glycol) was “Not easily soluble,” each time. In addition, the “Reconstitution time for milled API (Approx. 124 μm, BSS Sieve 120 passed)” value is “Soluble in 3 minutes,” in series [2] (PEG-300); “Soluble in 3 minutes,” in [2] (PEG-400); “Soluble in 3 minutes,” in series [2] (propylene glycol); 3 minutes with shaking in series [3] (propylene glycol with 10 mg/mL Arginine); 1.40 minutes with shaking in series [3] (propylene glycol with 10 mg/mL Lysine); 2 minutes with shaking in [3] (propylene glycol with 10 mg/mL Meglumine). The “Reconstitution time for milled API (Approx. 124 μm, BSS Sieve 120 passed)” value in series [3] (propylene glycol with 10 mg/mL Tromethamine) turned out to be 1.45 minutes with shaking. Besides, the Observation entry in [4] (1.8 mL PEG 300 + 1.2 mL water) is listed as “Turbid with particles”; in [4] (1.8 mL PEG 400 + 1.2 mL water) it was “Turbid with particles”; in series [4] (1.8 mL propylene glycol + 1.2 mL water) it was “Turbid with particles”; in series [5] (setting [12]), “Clear”; in [5] (setting [13]) it was “Clear”; in [5] (setting [14]) it was “Clear”. In addition, the Observation entry in series [5] (setting [15]) is listed as “Clear”; in [6] (setting [16]) it was “hazy”; in series [6] (setting [17]) it was “hazy”; in series [6] (setting [18]), “Clear”; in series [6] (setting [19]), “Clear”; in series [6] (setting [20]) it was “Clear”. The Observation result is listed as “Clear” in [6] (setting [21]); “Clear” in series [6] (setting [22]); “hazy” in series [6] (setting [23]); “Clear” in series [6] (setting [24]); “Clear” in series [6] (setting [25]); “Clear” in [7] (Tris 30 mg). Moreover, the Observation entry in series [7] (Tris 35 mg) is recorded as “Clear”; in series [7] (Tris 40 mg), “Clear”; in [7] (Tris 50 mg), “hazy”. In addition, the Reconstitution time in series [5] (setting [12]) worked out at 3.15 min; in [5] (setting [13]), 3.50 min; in [5] (setting [14]), 3.20 min; in series [5] (setting [15]), 2.40 min; in series [6] (setting [16]), 2.00 min; in series [6] (setting [17]) it was 2.00 min. For the same compound, the Reconstitution time in [6] (setting [18]) is recorded as 2.20 min; in series [6] (setting [19]), 2.30 min; in [6] (setting [20]), 2.00 min; in series [6] (setting [21]), 2.10 min; in series [6] (setting [22]), 2.30 min; in series [6] (setting [23]), 2.10 min. For the same compound, the Reconstitution time in [6] (setting [24]) came to 2.25 min; in series [6] (setting [25]), 2.10 min; in [7] (Tris 30 mg), 2.00 min; in [7] (Tris 35 mg), 1.25 min; in series [7] (Tris 40 mg), 1.00 min; in series [7] (Tris 50 mg), 1.40 min. Besides, the “% Salicylic acid” value in [8] (setting [26]) turned out to be 0.24%. This compound also had an Aspirin peak purity in series [8] (setting [26]) of 99.76%. For the same compound, the “period for which reconstituted aspirin was stable” value in series [8] (higher concentration (50 mg/mL), aqueous solution containing both meglumine and sodium citrate, 2-8° C.) is “about 5 hours”. The “time to clear solution on reconstitution” value in series [9] was not above 2 min. Moreover, the “solubility in aqueous alkali hydroxide solutions and aqueous bicarbonate solutions” value in series [10] is recorded as “soluble”. Also, the “solubility in aqueous buffers” value in series [11] was “poor”. In addition, the “period stable at room temperature” value in series [1] (room temperature, inferred from accelerated stability data) was “at least 2 years”.
